For one experiment, the target named is T1, Recombinant human HDAC6 (Homo sapiens, UniProt Q9UBN7).
T1 construct: full length, MW=159 kDa; GST (N); host or cells: Sf9 insect cells (baculovirus)
T1 sequence (Q9UBN7 1-1215): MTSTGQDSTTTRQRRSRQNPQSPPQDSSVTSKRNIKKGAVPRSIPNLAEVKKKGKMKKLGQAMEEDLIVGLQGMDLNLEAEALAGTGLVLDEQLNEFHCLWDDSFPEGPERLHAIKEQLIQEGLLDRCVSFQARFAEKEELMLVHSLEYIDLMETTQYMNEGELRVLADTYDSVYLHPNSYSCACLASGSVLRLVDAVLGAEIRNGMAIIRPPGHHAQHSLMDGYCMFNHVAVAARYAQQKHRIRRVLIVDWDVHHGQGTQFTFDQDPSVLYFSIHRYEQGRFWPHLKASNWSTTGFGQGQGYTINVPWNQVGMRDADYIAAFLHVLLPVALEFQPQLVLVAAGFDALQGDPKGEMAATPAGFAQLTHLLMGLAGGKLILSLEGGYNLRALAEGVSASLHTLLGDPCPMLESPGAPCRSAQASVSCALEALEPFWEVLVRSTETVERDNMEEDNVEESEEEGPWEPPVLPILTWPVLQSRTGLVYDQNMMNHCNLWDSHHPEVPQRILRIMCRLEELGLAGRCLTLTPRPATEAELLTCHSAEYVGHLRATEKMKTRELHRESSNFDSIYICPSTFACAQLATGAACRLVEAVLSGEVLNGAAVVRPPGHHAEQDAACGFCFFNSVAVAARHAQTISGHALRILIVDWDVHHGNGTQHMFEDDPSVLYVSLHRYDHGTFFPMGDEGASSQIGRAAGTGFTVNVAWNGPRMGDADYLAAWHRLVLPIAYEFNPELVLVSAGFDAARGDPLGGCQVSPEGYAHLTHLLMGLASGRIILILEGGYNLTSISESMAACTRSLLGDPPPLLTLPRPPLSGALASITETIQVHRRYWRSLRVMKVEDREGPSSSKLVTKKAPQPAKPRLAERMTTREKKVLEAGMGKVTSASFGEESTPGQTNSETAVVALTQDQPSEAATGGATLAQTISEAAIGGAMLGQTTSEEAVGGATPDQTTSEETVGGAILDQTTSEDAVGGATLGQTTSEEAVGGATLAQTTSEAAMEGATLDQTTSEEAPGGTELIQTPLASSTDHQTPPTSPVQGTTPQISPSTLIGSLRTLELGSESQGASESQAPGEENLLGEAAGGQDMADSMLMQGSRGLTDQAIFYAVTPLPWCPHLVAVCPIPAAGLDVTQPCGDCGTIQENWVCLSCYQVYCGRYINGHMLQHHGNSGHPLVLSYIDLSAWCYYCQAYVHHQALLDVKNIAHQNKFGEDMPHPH
The experiment in a line: HDAC6 biochemical assay, AMC-labeled peptide substrate. The settings on record: HDAC6; read-out: HDAC Isoform IC50 (nM) 6. In short, it runs like this: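 Two-step fluorogenic read-out: enzyme deacetylates 50 μM RHKK(Ac)AMC for 1 h at 30° C in pH 8.0 Tris buffer with BSA and 1% DMSO, then developer cleavage gives signal at Ex 360/Em 460. Enzyme: 0.3 ng/ul recombinant full-length human HDAC6, GST-tagged, Sf9-expressed.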

Experiment [1] addresses T2, Complex of human HDAC3 and human NCOR2 (Homo sapiens, UniProt O15379).
T2 construct: full length with C-terminal His tag, MW=49.7 kDa; His (C); host or cells: baculovirus expression system (co-expressed)
Description: HDAC3 biochemical assay, AMC-labeled peptide substrate. The settings on record: read-out: HDAC Isoform IC50 (nM) 3. The method, boiled down: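 Baculovirus-coexpressed His-tagged full-length HDAC3 with GST-NCOR2 (aa 395-489), 0.1 ng/ul, deacetylates 50 μM RHKK(Ac)AMC in Tris-HCl pH8.0 with BSA and 1% DMSO, 1 h at 30° C. Developer then cleaves deacetylated substrate; fluorescence read at 360/460 Ex/Em.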

The target in another experiment is T3, Human HDAC11 (Homo sapiens, UniProt Q96DB2).
T3 construct: Human HDAC11 (full length); His (N); host or cells: baculovirus expression system
T3 sequence (Q96DB2 1-347): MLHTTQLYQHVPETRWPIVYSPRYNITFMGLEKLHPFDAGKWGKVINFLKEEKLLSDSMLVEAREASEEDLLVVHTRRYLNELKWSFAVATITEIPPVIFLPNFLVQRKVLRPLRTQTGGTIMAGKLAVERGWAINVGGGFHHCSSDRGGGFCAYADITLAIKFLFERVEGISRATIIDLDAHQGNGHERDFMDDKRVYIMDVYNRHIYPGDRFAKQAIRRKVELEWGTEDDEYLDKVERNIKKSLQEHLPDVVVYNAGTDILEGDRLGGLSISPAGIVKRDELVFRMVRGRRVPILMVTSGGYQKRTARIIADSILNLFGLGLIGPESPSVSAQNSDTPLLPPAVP
The experiment in a line: HDAC11 biochemical assay, class IIa-specific substrate. The settings on record: read-out: HDAC Isoform IC50 (nM) 11. The method, boiled down: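 Full-length N-His human HDAC11 from baculovirus, 5 ng/μl, incubated with 50 μM Boc-Lys(trifluoroacetyl)-AMC for 30 min at 30 °C. Buffer: 50 mM Tris-HCl pH 8.0, 137 mM NaCl, 2.7 mM KCl, 1 mM MgCl2, 1 mg/mL BSA, 1% DMSO. Developer releases AMC; fluorescence read at 360/460 nm.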

T2 sequence (O15379 whole entry): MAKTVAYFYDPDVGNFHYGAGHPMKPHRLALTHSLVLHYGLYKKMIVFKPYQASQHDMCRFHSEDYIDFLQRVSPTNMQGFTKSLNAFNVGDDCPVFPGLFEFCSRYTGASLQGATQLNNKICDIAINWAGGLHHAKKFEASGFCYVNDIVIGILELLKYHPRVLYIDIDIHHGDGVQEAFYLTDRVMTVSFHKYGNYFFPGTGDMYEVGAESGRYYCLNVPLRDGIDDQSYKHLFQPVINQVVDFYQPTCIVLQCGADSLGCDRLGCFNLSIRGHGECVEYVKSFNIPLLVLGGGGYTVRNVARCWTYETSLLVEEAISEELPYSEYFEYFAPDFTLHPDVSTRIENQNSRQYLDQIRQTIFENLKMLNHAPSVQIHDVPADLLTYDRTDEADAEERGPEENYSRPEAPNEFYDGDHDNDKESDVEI
T2 sequence (Q9Y618 395-489 partner limits assumed): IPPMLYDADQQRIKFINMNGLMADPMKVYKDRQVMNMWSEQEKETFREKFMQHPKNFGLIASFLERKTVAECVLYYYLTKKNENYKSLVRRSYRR

As a reminder, the IC50 is the point on the concentration scale where inhibition reaches its midpoint. On to `FC(F)(F)c1nc(-c2ccc(CN(c3ccncn3)c3cnccn3)s2)no1` [Example BZ, N-(Pyrazin-2-yl)-N-({5-[5-(trifluoromethyl)-1,2,4-oxadiazol-3-yl]thiophen-2-yl}methyl)pyrimidin-4-amine], for which the IC50 is ≤ 500 nM on Recombinant human HDAC6, > 10000 nM in experiment [1] and > 10000 nM at Human HDAC11.
For `CS(=O)(=O)c1nccc(N(Cc2ccc(-c3noc(C(F)(F)F)n3)s2)c2cnccn2)n1` [Example CE, 2-Methanesulfonyl-N-(pyrazin-2-yl)-N-({5-[5-(trifluoromethyl)-1,2,4-oxadiazol-3-yl]thiophen-2-yl}methyl)pyrimidin-4-amine], the concentration for half-maximal inhibition (IC50) at Recombinant human HDAC6 is ≤ 500 nM.
Turning to `FC(F)(F)c1nc(-c2ccc(CN(c3cncnc3)c3cnccn3)s2)no1` [Example CR, N-(Pyrazin-2-yl)-N-({5-[5-(trifluoromethyl)-1,2,4-oxadiazol-3-yl]thiophen-2-yl}methyl)pyrimidin-5-amine], the IC50 at Recombinant human HDAC6 is ≤ 500 nM; in experiment [1], > 10000 nM; at Human HDAC11 it was > 10000 nM.
For the compound `FC(F)(F)c1ccc(N(Cc2ccc(-c3noc(C(F)(F)F)n3)s2)c2cnccn2)nn1` [Example DH, N-(Pyrazin-2-yl)-6-(trifluoromethyl)-N-({5-[5-(trifluoromethyl)-1,2,4-oxadiazol-3-yl]thiophen-2-yl}methyl)pyridazin-3-amine], the IC50 at Recombinant human HDAC6 is ≤ 500 nM; in experiment [1], ≤ 10000 nM; on Human HDAC11, > 10000 nM.
Taken in the same sequence, the figures for `FC(F)(F)c1nc(-c2ccc(CN(c3cnccn3)c3ccc(N4CCCC4)nn3)s2)no1` [Example DI, N-(Pyrazin-2-yl)-6-(pyrrolidin-1-yl)-N-({5-[5-(trifluoromethyl)-1,2,4-oxadiazol-3-yl]thiophen-2-yl}methyl)pyridazin-3-amine] were ≤ 500 nM, ≤ 10000 nM and > 10000 nM.
As for `CS(=O)(=O)c1ccc(N(Cc2ccc(-c3noc(C(F)(F)F)n3)s2)c2cnccn2)nn1` [Example DL, 6-Methanesulfonyl-N-(pyrazin-2-yl)-N-({5-[5-(trifluoromethyl)-1,2,4-oxadiazol-3-yl]thiophen-2-yl}methyl)pyridazin-3-amine], the IC50 was ≤ 500 nM at Recombinant human HDAC6, > 10000 nM in experiment [1] and > 10000 nM on Human HDAC11.
Consider `FC(F)(F)c1nc(-c2ccc(CN(c3ccccn3)c3cnccn3)s2)no1` [Example V, N-(Pyridin-2-yl)-N-({5-[5-(trifluoromethyl)-1,2,4-oxadiazol-3-yl]thiophen-2-yl}methyl)pyrazin-2-amine], for which the IC50 on Recombinant human HDAC6 is ≤ 500 nM; in experiment [1] it was > 10000 nM; on Human HDAC11 it was > 10000 nM.

Source of the values: US20210038607A1, “OXADIAZOLYLTHIOPHENE DERIVATIVES USEFUL AS HISTONE DEACETYLASE INHIBITORS” (Karus Therapeutics Limited, priority 2018, published 2021).
